Test: xn = mol fraction of the nth substance listed
Conditions: Liquid, Vibrating tube method

c1ccc2sccc2c1 [benzo[b]thiophene] + CCCCCC
Conditions | mass density [kg/m3]
352.41 K, 1015 kPa, x2 = 0.0629 | 1076.7
352.41 K, 2020 kPa, x2 = 0.0629 | 1077.4
352.41 K, 3016 kPa, x2 = 0.0629 | 1078.1
352.41 K, 4038 kPa, x2 = 0.0629 | 1078.8
352.41 K, 5000 kPa, x2 = 0.0629 | 1079.5
352.41 K, 6001 kPa, x2 = 0.0629 | 1080.4
352.41 K, 7017 kPa, x2 = 0.0629 | 1081.1
352.41 K, 8008 kPa, x2 = 0.0629 | 1082
352.41 K, 9017 kPa, x2 = 0.0629 | 1082.6
352.41 K, 10026 kPa, x2 = 0.0629 | 1083.4
352.41 K, 11018 kPa, x2 = 0.0629 | 1084.1
352.41 K, 12014 kPa, x2 = 0.0629 | 1084.7
352.41 K, 13014 kPa, x2 = 0.0629 | 1085.4
352.41 K, 14022 kPa, x2 = 0.0629 | 1086.2
352.41 K, 15028 kPa, x2 = 0.0629 | 1086.8
352.41 K, 16020 kPa, x2 = 0.0629 | 1087.6
352.41 K, 17023 kPa, x2 = 0.0629 | 1088.2
352.41 K, 18015 kPa, x2 = 0.0629 | 1088.8
352.41 K, 19016 kPa, x2 = 0.0629 | 1089.5
352.41 K, 20019 kPa, x2 = 0.0629 | 1090.2
352.53 K, 1025 kPa, x2 = 0.9432 | 630.4
352.53 K, 1026 kPa, x2 = 0.7491 | 725.1
352.53 K, 2023 kPa, x2 = 0.9432 | 632.1
352.53 K, 2026 kPa, x2 = 0.7491 | 726.5
352.53 K, 3024 kPa, x2 = 0.7491 | 727.8
352.53 K, 3030 kPa, x2 = 0.9432 | 633.8
352.53 K, 4018 kPa, x2 = 0.9432 | 635.4
352.53 K, 4034 kPa, x2 = 0.7491 | 729.2
352.53 K, 5014 kPa, x2 = 0.7491 | 730.5
352.53 K, 5021 kPa, x2 = 0.9432 | 637
352.53 K, 6018 kPa, x2 = 0.9432 | 638.5
352.53 K, 6040 kPa, x2 = 0.7491 | 731.8
352.53 K, 7010 kPa, x2 = 0.9432 | 639.9
352.53 K, 7028 kPa, x2 = 0.7491 | 733
352.53 K, 8017 kPa, x2 = 0.7491 | 734.3
352.53 K, 8018 kPa, x2 = 0.9432 | 641.4
352.53 K, 9003 kPa, x2 = 0.7491 | 735.5
352.53 K, 9044 kPa, x2 = 0.9432 | 642.8
352.53 K, 10008 kPa, x2 = 0.7491 | 736.7
352.53 K, 10011 kPa, x2 = 0.9432 | 644.2
352.53 K, 11016 kPa, x2 = 0.7491 | 737.9
352.53 K, 11022 kPa, x2 = 0.9432 | 645.5
352.53 K, 12002 kPa, x2 = 0.7491 | 739
352.53 K, 12013 kPa, x2 = 0.9432 | 646.9
352.53 K, 13005 kPa, x2 = 0.9432 | 648.2
352.53 K, 13020 kPa, x2 = 0.7491 | 740.2
352.53 K, 14000 kPa, x2 = 0.9432 | 649.5
352.53 K, 14016 kPa, x2 = 0.7491 | 741.3
352.53 K, 15021 kPa, x2 = 0.9432 | 650.8
352.53 K, 15037 kPa, x2 = 0.7491 | 742.5
352.53 K, 16022 kPa, x2 = 0.9432 | 652
352.53 K, 16035 kPa, x2 = 0.7491 | 743.6
352.53 K, 17001 kPa, x2 = 0.9432 | 653.2
352.53 K, 17020 kPa, x2 = 0.7491 | 744.6
352.53 K, 18013 kPa, x2 = 0.9432 | 654.4
352.53 K, 18020 kPa, x2 = 0.7491 | 745.7
352.53 K, 19007 kPa, x2 = 0.9432 | 655.6
352.53 K, 19008 kPa, x2 = 0.7491 | 746.7
352.53 K, 20019 kPa, x2 = 0.7491 | 747.8
352.53 K, 20039 kPa, x2 = 0.9432 | 656.7
352.63 K, 1037 kPa, x2 = 0.4495 | 874.2
352.63 K, 2029 kPa, x2 = 0.4495 | 875.3
352.63 K, 3026 kPa, x2 = 0.4495 | 876.4
352.63 K, 4032 kPa, x2 = 0.4495 | 877.5
352.63 K, 5015 kPa, x2 = 0.4495 | 878.5
352.63 K, 6024 kPa, x2 = 0.4495 | 879.5
352.63 K, 7028 kPa, x2 = 0.4495 | 880.5
352.63 K, 8017 kPa, x2 = 0.4495 | 881.5
352.63 K, 9003 kPa, x2 = 0.4495 | 882.5
352.63 K, 10022 kPa, x2 = 0.4495 | 883.5
352.63 K, 11024 kPa, x2 = 0.4495 | 884.5
352.63 K, 12013 kPa, x2 = 0.4495 | 885.4
352.63 K, 13038 kPa, x2 = 0.4495 | 886.4
352.63 K, 14000 kPa, x2 = 0.4495 | 887.3
352.63 K, 15021 kPa, x2 = 0.4495 | 888.2
352.63 K, 16012 kPa, x2 = 0.4495 | 889.1
352.63 K, 17010 kPa, x2 = 0.4495 | 890
352.63 K, 18015 kPa, x2 = 0.4495 | 890.9
352.63 K, 19022 kPa, x2 = 0.4495 | 891.8
352.63 K, 20005 kPa, x2 = 0.4495 | 892.7
362.31 K, 1028 kPa, x2 = 0.9432 | 620.3
362.31 K, 2031 kPa, x2 = 0.9432 | 622.2
362.31 K, 3031 kPa, x2 = 0.9432 | 624
362.31 K, 4012 kPa, x2 = 0.9432 | 625.7
362.31 K, 5026 kPa, x2 = 0.9432 | 627.4
362.31 K, 6013 kPa, x2 = 0.9432 | 629.1
362.31 K, 7022 kPa, x2 = 0.9432 | 630.7
362.31 K, 8014 kPa, x2 = 0.9432 | 632.3
362.31 K, 9000 kPa, x2 = 0.9432 | 633.7
362.31 K, 10011 kPa, x2 = 0.9432 | 635.3
362.31 K, 11007 kPa, x2 = 0.9432 | 636.7
362.31 K, 12007 kPa, x2 = 0.9432 | 638.2
362.31 K, 13008 kPa, x2 = 0.9432 | 639.6
362.31 K, 14024 kPa, x2 = 0.9432 | 640.9
362.31 K, 15002 kPa, x2 = 0.9432 | 642.3
362.31 K, 16016 kPa, x2 = 0.9432 | 643.6
362.31 K, 17000 kPa, x2 = 0.9432 | 644.9
362.31 K, 18008 kPa, x2 = 0.9432 | 646.3
362.31 K, 19018 kPa, x2 = 0.9432 | 647.5
362.31 K, 20028 kPa, x2 = 0.9432 | 648.8
362.33 K, 1020 kPa, x2 = 0.7491 | 715.3
362.33 K, 2034 kPa, x2 = 0.7491 | 716.8
362.33 K, 3013 kPa, x2 = 0.7491 | 718.3
362.33 K, 4007 kPa, x2 = 0.7491 | 719.7
362.33 K, 5015 kPa, x2 = 0.7491 | 721.2
362.33 K, 6018 kPa, x2 = 0.7491 | 722.5
362.33 K, 7015 kPa, x2 = 0.7491 | 723.9
362.33 K, 8017 kPa, x2 = 0.7491 | 725.2
362.33 K, 9024 kPa, x2 = 0.7491 | 726.5
362.33 K, 10010 kPa, x2 = 0.7491 | 727.8
362.33 K, 10996 kPa, x2 = 0.7491 | 729.1
362.33 K, 12027 kPa, x2 = 0.7491 | 730.4
362.33 K, 13022 kPa, x2 = 0.7491 | 731.6
362.33 K, 14016 kPa, x2 = 0.7491 | 732.8
362.33 K, 15023 kPa, x2 = 0.7491 | 734
362.33 K, 16012 kPa, x2 = 0.7491 | 735.1
362.33 K, 17011 kPa, x2 = 0.7491 | 736.3
362.33 K, 18012 kPa, x2 = 0.7491 | 737.4
362.33 K, 19030 kPa, x2 = 0.7491 | 738.6
362.33 K, 20017 kPa, x2 = 0.7491 | 739.7
362.5 K, 1028 kPa, x2 = 0.4495 | 864.8
362.5 K, 2025 kPa, x2 = 0.4495 | 866
362.5 K, 3020 kPa, x2 = 0.4495 | 867.1
362.5 K, 4000 kPa, x2 = 0.4495 | 868.2
362.5 K, 5045 kPa, x2 = 0.4495 | 869.3
362.5 K, 6017 kPa, x2 = 0.4495 | 870.4
362.5 K, 7018 kPa, x2 = 0.4495 | 871.5
362.5 K, 8013 kPa, x2 = 0.4495 | 872.5
362.5 K, 9024 kPa, x2 = 0.4495 | 873.6
362.5 K, 10011 kPa, x2 = 0.4495 | 874.6
362.5 K, 11008 kPa, x2 = 0.4495 | 875.6
362.5 K, 12025 kPa, x2 = 0.4495 | 876.6
362.5 K, 13004 kPa, x2 = 0.4495 | 877.6
362.5 K, 14014 kPa, x2 = 0.4495 | 878.6
362.5 K, 15011 kPa, x2 = 0.4495 | 879.6
362.5 K, 16027 kPa, x2 = 0.4495 | 880.6
362.5 K, 17017 kPa, x2 = 0.4495 | 881.5
362.5 K, 18030 kPa, x2 = 0.4495 | 882.5
362.5 K, 19022 kPa, x2 = 0.4495 | 883.4
362.5 K, 20002 kPa, x2 = 0.4495 | 884.3

Source: the NIST ThermoML archive (doi:10.1021/je7003929)
